Reference: US12180159B2, “Activators of the unfolded protein response” (The Board of Trustees of the University of Illinois, priority 2018, dated 2024)

Key:
[1] = tested on: ERα Negative MCF-10A cells; assay: Trypan Blue exclusion cell death assay, MCF-10A cells; type: cell-based; conditions: 75 nM, 24 hours
Text: (§1) TRYPAN BLUE: For decades, viable cells have been measured by their ability to exclude the dye Trypan Blue. […] Dead cells, which have lost membrane integrity, take up the dye and are blue. Thus, the percentage of dead cells is the percentage of cells that are Trypan Blue positive out of the total cell population. Quantitative assessment of Trypan Blue uptake uses a cell counter from Fisher. Since the assay is instrument based, there is no observer bias in determining the percentage of Trypan Blue positive cells.
(§2) TRYPAN BLUE ASSAYS: Assays are performed on cells in 6 well plates: 300,000 cells are plated in each well of a 6 well plate in 3 ml of medium. After 24 hours, the DMSO vehicle or the indicated compound is added (in 1000th of the vol.) The cells incubated for an additional 24 hours, and then harvested in 0.25 ml of trypsin, followed after harvest by 0.75 ml of medium. The cells are spun down and resuspended in 100-200 μl of medium left that is over the cell pellet (resuspend cells by pipetting up and down a few times). Add 10 μl to 10 μl of trypan blue. Then 10 μl is inserted into the counting slide. After inserting the slide into the Fisher TC20 counting is automatic (these many cells are needed because an accurate ratio of Trypan Blue positive to Trypan Blue negative cells requires about 200 cells in the field the instrument counts).
In FIG. 28, neither the test compounds nor BHPI kill non-tumorigenic ERα Negative MCF-10A breast cells. ERα Negative MCF-10A cells were maintained for 24 hours in DMSO vehicle or 75 nM of BHPI or 75 nM of each of the indicated test compounds: 4, 6 and 105. Cell death was determined using the instrument-based Trypan Blue exclusion assay. (n=3±SEM).

[2] = tested on: (BHPI-sensitive) parental T47D cells; assay: Growth of parental T47D cells (MTS); type: cell-based, human; conditions: 100 nM and 1 μM, 4 days
Method: (§3) ERα containing T47D human breast cancer cells able to survive in 1 μM BHPI were selected by clonal outgrowth. The effect of 100 nM and 1 μM BHPI and (−)-105 on growth of the (BHPI-sensitive) parental T47D cells and partially BHPI-resistant T47D clones 1, 3, 8, and 11 was evaluated. 4,000 cells/well were plated. Cell number was determined by MTS assay from a standard curve of absorbance versus cell number. […] Thus, in 4 days (−)-105 killed some, but not all, of the resistant cells.

Caov-3 cells = assay: Cell death of Caov-3 ovarian cancer cells (automated Trypan Blue exclusion); type: cell-based, human; conditions: 24 hours
Method: FIG. 33. 105, but not BHPI, kills therapy-resistant ovarian CaOV-3 ovarian cancer cells. (±)-105; Cell death assay: Automated Trypan Blue exclusion. (24 hours post (±)-105) FIG. 34. (−)105 nearly eradicates ER+ drug-resistant tumors. Orthotopic breast cancer model, TYS-Luc cells, 40 mg/kg (−)-105 i.p., daily. 7 d Post injection image is a much longer exposure at higher gain than before injection image.
Caov3: Drug resistant ERα positive ovarian cancer cells. […] These cells are completely resistant to tamoxifen and fulvestrant and partially resistant to cisplatin and paclitaxel.

[3] = tested on: partially BHPI-resistant T47D clones 1, 3, 8, and 11; assay: Growth of partially BHPI-resistant T47D clones (MTS); type: cell-based, human; conditions: 100 nM and 1 μM, 4 days
Method: as §3

[4] = tested on: T47D, TYS-4 and TDG-1 cells; assay: MTS proliferation assay, T47D, TYS and TDG cells; type: cell-based, human; conditions: 4 days
Method: FIG. 30 compares the ability of BHPI and test compounds to inhibit proliferation of T47D, TYS and TDG cells. T47D cells were in medium containing 10 FBS (which contains estrogen), TYS-4 and TDG-1 cells were in medium containing 10% cd-FBS (estrogen depleted). Cells are plated at 2,000 cells/well in 96 well plates. After 24 hours in medium containing FBS or charcoal-dextran treated FBS (depleted of endogenous estrogens), the indicated concentration of each compound (in DMSO at 1/1000th of the volume of medium) was added. After 2 days the medium was changed, and the compounds were added again. After 2 additional days (4 days total) MTS assays are used to evaluate cell proliferation. (n=6±S.E.M.).

TYS-Luc cells = assay: Long-term cell culture experiment, TYS-Luc cells (MTS); type: cell-based, human; conditions: 2 weeks 1 μM, then 4 weeks without drug
Method: To simulate the effect of several weeks of treatment of a tumor in a mouse xenograft, long-term cell culture experiments were performed. TYS-Luc cells (T47DERαY537S-Luc cells; ERαY537S is the most lethal ERα mutation seen in metastatic breast cancer) were plated at 4,000 cells/well in 96 well plates. […] After 2 weeks (medium change every 2 days) cell number was determined using MTS and a standard curve of absorbance versus cell number for TYS-Luc cells. Notes: (i) Bars denote the BHPI and (−)-105 arms of the experiment. No drug is present during regrow. […] This allows any surviving cells to regrow. After 4 weeks the cells were assayed using MTS. […] (Note: Visual inspection of the wells confirmed that there were no cells in the well treated for 2 weeks with active (−)-105.) To test whether the cells that regrew after BHPI treatment were resistant to BHPI they were re-treated for another cycle (BHPI Retreat) and shown to retain sensitivity to BHPI killing. (n=8 biological replicates±SEM.

[5] = tested on: ERα positive breast cancer; assay: Mouse xenograft model of ERα positive breast cancer (BHPI); type: in vivo; conditions: at reasonable doses
TDG cells (T47DERαD538G) = assay: Trypan Blue exclusion cell death assay, TDG cells; type: cell-based, human; conditions: 24 hours
Text: as §1, §2
The Trypan Blue cell death assay was used to evaluate the ability of the active enantiomer of C-105 [(−)-105] to kill ERα positive TDG-Luc cells. For all studies, 300,000 TDG-Luc cells/well in 10% FBS were plated in a 6 well plate in triplicate. 24 hours after plating, the indicated concentrations the active enantiomer of (−)-105, or BHPI (top) ICI, or OHT (Lower left) or (+)-105 (lower right) were added. After 24 hours, the cells were harvested, and the % dead cells was determined by automated Trypan Blue exclusion using the Countess II automated hemocytometer. Percentage of viable cells was calculated by doing 100−(Cell Death %). (n=3±SEM).
TDG cells were incubated for 24 hours with 75 nM of BHPI or 75 nM of each of the indicated test compounds: 4, 6 and (±)-105 (enantiomers not separated). Cell death was determined using the instrument-based Trypan Blue exclusion assay. Structures are in the Synthesis section. […] (n=3±SEM).

T47D cells [6] = conditions: 24 hours, up to 1,000 nM
Method: One such change is loss of plasma membrane polarity. This is monitored using Annexin V. Dying cells also take up the dye propidium iodide. Propidium iodide (PI) fluoresces when it is intercalated into DNA. These assays monitor cells at specific stages of cell death.
FLOW CYTOMETRY (FITC) ASSAYS: Cells were seeded in 12-well plates, 75,000 cells/well, and allowed to adhere overnight. The next day, the indicated concentrations of raptinal (positive control), (−)-105, (±)-105, and (+)-105 were added and allowed to incubate at 37° C. for 24 hours (Final Volume: 1 ml, 0.1% DMSO). After incubation, cells were harvested and resuspended in 350 μl of cold Annexin binding buffer (10 mM HEPES, 140 mM NaCl, 2.5 mM CaCl2, pH 7.4) premixed with Annexin V-FITC and PI dyes. Samples were analyzed on a BD Biosciences LSRII flow cytometer, and data analysis was performed using FSC Express Version 5-6. Cell death was assessed relative to a DMSO treated control.
T47D, human breast cancer cells were plated at 75,000 cells/well. […] After 24 hours viable cells were determined by FACS using annexin V-FITC and propidium iodide dyes. […]
75,000 ERα positive T47D, human breast cancer cells, were plated/well. […] After 24 hours viable cells were determined by FACS using annexin V-FITC and propidium iodide dyes. […]

MCF-7 and TYS-Luc cells = assay: Cell death with 2-APB or thapsigargin (Trypan Blue exclusion); type: cell-based, human; conditions: thapsigargin, TYS-Luc cells, 1 hour
Method: ERα positive MCF-7 and TYS-Luc were treated with DMSO vehicle (Veh), or BHPI or (−)-105 plus or minus 2-APB for the indicated times. Cells death was determined using the instrument-based Trypan Blue exclusion assay. […] This is consistent with (−)-105 inducing powerful lethal activation of the anticipatory UPR pathway. (n=3±SEM). […] TYS-Luc cells were maintained in DMSO vehicle (Veh) or BHPI, or (−)-105 with or without thapsigargin (THG) for the indicated times. Blocking the decline in ATP levels (FIG. 19) with THG inhibited (−)-105-induced cell death. […] (n=3±SEM).

[7] = tested on: ATP levels in TYS-Luc cells; assay: Intracellular ATP levels; type: cell-based, human; conditions: 10,000 nM thapsigargin with 1,000 nM (−)-105, 1 hr
Method: TYS-Luc cells were maintained DMSO vehicle (Veh), 1,000 nM BHPI, 1,000 nM (−)-105 with and without 10,000 nM thapsigargin (THG) for the indicated times. ATP levels were determines using a kit and relative ATP levels were from a standard curve. […] (n=3±SEM).

T47D cells [8] = assay: Trypan Blue exclusion cell death assay, T47D cells; type: cell-based, human; conditions: 75 nM, 24 hours
Text: as §1
TRYPAN BLUE ASSAYS: Assays are performed on cells in 6 well plates: 300,000 cells are plated in each well of a 6 well plate in 3 ml of medium. After 24 hours, the DMSO vehicle or the indicated compound is added (in 1000th of the vol.) The cells incubated for an additional 24 hours, and then harvested in 0.25 ml of trypsin, followed after harvest by 0.75 ml of medium. […]
T47D cells were incubated for 24 hours with 75 nM of BHPI or 75 nM of each of the indicated test compounds: 4 and 6. Cell death was determined using the instrument-based Trypan Blue exclusion assay. […]
T47D cells were treated for 24 hours with 100 nM BHPI, or with 100 nM of each of the test compounds: 6, 8, and 105. […] Cell death was determined using the instrument-based Trypan Blue exclusion assay. […]

TYS cells (T47DERαY537S) = assay: Trypan Blue exclusion cell death assay, TYS cells; type: cell-based, human; conditions: 24 hours
Text: as §1, §2
TYS cells were incubated for 24 hours with 35 nM of BHPI or 35 nM of each of the indicated test compounds: 2, 4, and 105. Cell death was determined using the instrument-based Trypan Blue exclusion assay. (n=3±SEM).
TYS cells were incubated for 24 hours with 50 nM of BHPI or 50 nM of each of the indicated test compounds: 4, 6 and 105. Cell death was determined using the instrument-based Trypan Blue exclusion assay. (n=3±SEM).

## Cc1cccc2c1NC(=O)C2(c1ccc(O)cc1)c1ccc(O)cc1 [BHPI, reference compound]
[1]
  death of ERα Negative MCF-10A cells: neither BHPI nor any of the test compounds induce significant death
[2]
  growth / killing of parental T47D cells: blocked growth and killed many of the T47D cells
Caov-3 cells
  killing of Caov-3 ovarian cancer cells: blocks growth of Caov-3 cells but does not kill them
[3]
  growth of the BHPI-resistant clones: inhibited growth but could not stop growth of the resistant clones
[4]
  inhibition of proliferation: effectively inhibit proliferation
OVCAR-3 cells; OVCAR-3 orthotopic xenograft
  effect on tumor growth / tumors: strongly reduced tumor growth
OVCAR-3 cells; in both studies
  tolerability in mice: well tolerated
TYS-Luc cells
  regrowth of cells after treatment: robust regrowth
[5]
  effect on tumor growth: stopped tumor growth and induced rapid and substantial tumor regression

## CC/C(=C(\c1ccc(O)cc1)c1ccc(OCCN(C)C)cc1)c1ccccc1 [OHT, z-4-hydroxytamoxifen, reference compound]
TDG cells (T47DERαD538G); dose response, TDG-Luc cells
  killing of TDG-Luc cells: do not kill
T47D cells [6]
  cytotoxic or cytostatic phenotype: cytostatic

## C/C=C(/C)C(=O)O[C@H]1C(C)=C2[C@H]([C@@H]1OC(=O)CCCCCCC)[C@@](C)(OC(C)=O)C[C@H](OC(=O)CCC)[C@@]1(O)[C@H]2OC(=O)[C@@]1(C)O [THG, thapsigargin, reference compound]
MCF-7 and TYS-Luc cells
  effect on (−)-105-induced cell death: strong inhibition
[7]
  effect on (−)-105-induced decline in ATP levels: completely blocked

## COc1ccc(C2(c3ccc(O)cc3)C(=O)Nc3c(C(F)(F)F)cccc32)cc1 (stereo not shown) [compound 4, 3-(4-hydroxyphenyl)-3-(4-methoxyphenyl)-7-(trifluoromethyl)indolin-2-one]
[1]
  death of ERα Negative MCF-10A cells: neither BHPI nor any of the test compounds induce significant death
T47D cells [8]
  ability to kill T47D cells (wild type estrogen receptor): greatly increased ability to kill
[4]
  effectiveness in killing ERα positive breast cancer cells compared to BHPI: more effective than BHPI
TYS cells (T47DERαY537S); 35 nM
  ability to kill TYS cells compared to BHPI: greatly increased ability to kill
TYS cells (T47DERαY537S); 50 nM
  ability to kill TYS cells compared to BHPI: increased ability to kill
TDG cells (T47DERαD538G); 75 nM
  ability to kill TDG cells compared to BHPI: greatly increased ability to kill
